Counter-ions that a name gives are not always drawn.
Legend:
[1] = Pharmacokinetic evaluation in beagle dogs; type: in vivo, Male beagle dogs; details: fed
Procedure: Male beagle dogs were selected as the experimental animals in this study.
Beagle dogs (male, 7 to 10 kg, Beijing Mars Biotechnology Co., Ltd.).
A clear solution of the test compound was slowly injected intravenously into beagle dogs (fed) via the peripheral vein (vehicle: 5% DMSO/10% Solutol/85% H2O), or administered intragastrically to beagle dogs (fed). For intravenous administration, 0.5 mL of blood was collected from the peripheral vein at 0.083, 0.25, 0.5, 1, 2, 4, 6, 8, and 24 h after administration, placed in EDTA-2K anticoagulant tubes, and centrifuged at 3200 g for 10 minutes at 2 to 8°C to separate the supernatant. For intragastric administration, 0.5 mL of blood was collected from the peripheral vein at 0.083, 0.25, 0.5, 1, 2, 4, 6, 8, and 24 h after administration, placed in EDTA-2K anticoagulant tubes, and centrifuged at 3200 g for 10 minutes at 2 to 8°C to separate the supernatant. Plasma drug concentrations were determined by the LC-MS/MS method, and relevant pharmacokinetic parameters were calculated using Phoenix WinNonlin 6.3 pharmacokinetic software with non-compartmental model linear-log trapezoidal method.

IRAK4 = target: T1, IRAK4 (Homo sapiens, UniProt Q9NWZ3); test: Target protein degradation in K562 IRAK4-HiBiT cells (Nano-Glo HiBiT assay); type: cell-based; details: K562, read-out: Maximum Degradation Rate
T1 construct: expressed in transfected cells; host or cells: K562 IRAK4-HiBiT cells
T1 sequence (Q9NWZ3 1-460): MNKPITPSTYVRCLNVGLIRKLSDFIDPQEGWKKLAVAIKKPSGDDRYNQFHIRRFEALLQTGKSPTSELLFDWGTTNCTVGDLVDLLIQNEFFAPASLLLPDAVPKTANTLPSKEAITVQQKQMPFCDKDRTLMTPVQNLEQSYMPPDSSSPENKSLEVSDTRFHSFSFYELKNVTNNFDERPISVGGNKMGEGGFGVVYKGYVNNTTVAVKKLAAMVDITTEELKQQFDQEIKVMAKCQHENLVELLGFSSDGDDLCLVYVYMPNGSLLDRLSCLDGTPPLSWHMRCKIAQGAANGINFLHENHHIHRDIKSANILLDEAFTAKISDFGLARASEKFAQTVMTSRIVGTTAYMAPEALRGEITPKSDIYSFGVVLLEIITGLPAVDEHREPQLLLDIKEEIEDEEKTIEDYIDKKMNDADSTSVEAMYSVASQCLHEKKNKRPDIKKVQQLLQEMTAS
Procedure: Objective: In this experiment, the degradation effect of the compound of formula (I) on the target protein IRAK4 in K562 IRAK4-HiBiT cells was detected.
• Cells: K562 IRAK4-HiBiT cells • Culture medium: RPMI 1640 + 10% fetal bovine serum + 2 mM glutamine + 1 mM sodium pyruvate + penicillin/streptomycin • Positive control: 1000 nM; negative control: 0.1% DMSO Table 7. Reagents and consumables […]
• (1) The cell culture medium was discarded, and the cells were washed once with DPBS, digested with trypsin, and counted to prepare a cell suspension of […]. • (2) 25 µL/well of cell suspension was added to the assay plate containing the test compound using Multidrop Combi at medium speed. • (3) The assay plate containing cells was returned to an incubator with 5% CO2 at 37°C and incubated for 16 to 18 hours.
• (1) 25 µL/well of assay reagent (NanoGlo lysis buffer + substrate + LgBit protein) was added to the assay plate using Multidrop Combi at high speed, and the plate was shaken for 10 minutes. • (2) The plate was centrifuged at 2000 rpm for 1 minute to remove air bubbles. • (3) The plate was read on Envision using US Luminescence detection method. […]

[2] = Pharmacokinetic evaluation in mice; type: in vivo, C57BL/6 or C57 male mice
Source text: C57BL/6 or C57 male mice were selected as the test animals for this study. The LC/MS/MS method was employed to quantitatively determine the plasma drug concentrations at various time points after intravenous injection or intragastric administration of the test compound, aiming to evaluate the pharmacokinetic characteristics of the compound of the present disclosure in mice.
C57BL/6 or C57 mice (male, 20 to 30g, 7 to 10 weeks old, Beijing Vital River).
A clear solution of the test compound was injected intravenously into the tail vein of C57BL/6 mice (fasted overnight) (vehicle: 10% DMSO/10% solutol/80% H2O), or administered intragastrically to C57 mice (fed). […] The mixture was thoroughly vortexed and mixed, and centrifuged at 6000 g for 3 minutes at 2 to 8°C. […] The mixture was thoroughly vortexed and mixed, and centrifuged at 6000 g for 3 minutes at 2 to 8°C. Plasma drug concentrations were determined by the LC-MS/MS method, and relevant pharmacokinetic parameters were calculated using Phoenix WinNonlin 8.2.0 pharmacokinetic software with non-compartmental model linear-log trapezoidal method.

IKZF3 = target: T2, IKZF3 (Homo sapiens, UniProt Q96SW2+Q9UKT9); test: In cell western analysis of IKZF3 protein expression level in MM.1S cells; type: cell-based; details: MM1.S, read-out: Maximum Degradation Rate Dmax
T2 construct: expression levels of IKZF1 and IKZF3 proteins in MM.1S cells; host or cells: MM.1S cells
T2 sequence (Q9UKT9 whole entry): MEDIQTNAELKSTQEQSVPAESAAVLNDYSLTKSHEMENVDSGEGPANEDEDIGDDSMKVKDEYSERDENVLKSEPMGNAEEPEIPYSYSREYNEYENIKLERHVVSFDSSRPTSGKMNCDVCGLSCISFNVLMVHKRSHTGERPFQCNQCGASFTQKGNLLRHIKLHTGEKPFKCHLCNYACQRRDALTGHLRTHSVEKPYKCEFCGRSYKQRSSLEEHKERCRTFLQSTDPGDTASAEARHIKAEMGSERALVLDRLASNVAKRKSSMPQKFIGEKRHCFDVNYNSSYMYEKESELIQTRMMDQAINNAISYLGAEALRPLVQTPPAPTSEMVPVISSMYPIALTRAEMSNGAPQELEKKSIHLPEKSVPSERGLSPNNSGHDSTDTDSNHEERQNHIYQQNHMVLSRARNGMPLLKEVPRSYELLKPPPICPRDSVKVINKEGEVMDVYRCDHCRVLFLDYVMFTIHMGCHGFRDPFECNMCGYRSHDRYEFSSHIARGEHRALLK
T2 sequence (Q96SW2 whole entry): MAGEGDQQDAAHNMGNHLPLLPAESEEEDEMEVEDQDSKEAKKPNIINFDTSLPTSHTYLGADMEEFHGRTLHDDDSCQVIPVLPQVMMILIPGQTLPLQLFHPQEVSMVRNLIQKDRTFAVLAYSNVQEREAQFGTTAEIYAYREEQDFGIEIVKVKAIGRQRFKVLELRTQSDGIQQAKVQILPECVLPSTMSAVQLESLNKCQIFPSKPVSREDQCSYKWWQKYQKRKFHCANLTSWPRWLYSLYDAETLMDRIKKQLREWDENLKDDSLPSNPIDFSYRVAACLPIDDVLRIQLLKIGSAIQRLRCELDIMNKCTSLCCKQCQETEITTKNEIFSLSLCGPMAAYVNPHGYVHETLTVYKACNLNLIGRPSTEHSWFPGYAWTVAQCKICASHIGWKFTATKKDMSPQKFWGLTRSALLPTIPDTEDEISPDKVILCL
T2 sequence (Q16531 whole entry partner): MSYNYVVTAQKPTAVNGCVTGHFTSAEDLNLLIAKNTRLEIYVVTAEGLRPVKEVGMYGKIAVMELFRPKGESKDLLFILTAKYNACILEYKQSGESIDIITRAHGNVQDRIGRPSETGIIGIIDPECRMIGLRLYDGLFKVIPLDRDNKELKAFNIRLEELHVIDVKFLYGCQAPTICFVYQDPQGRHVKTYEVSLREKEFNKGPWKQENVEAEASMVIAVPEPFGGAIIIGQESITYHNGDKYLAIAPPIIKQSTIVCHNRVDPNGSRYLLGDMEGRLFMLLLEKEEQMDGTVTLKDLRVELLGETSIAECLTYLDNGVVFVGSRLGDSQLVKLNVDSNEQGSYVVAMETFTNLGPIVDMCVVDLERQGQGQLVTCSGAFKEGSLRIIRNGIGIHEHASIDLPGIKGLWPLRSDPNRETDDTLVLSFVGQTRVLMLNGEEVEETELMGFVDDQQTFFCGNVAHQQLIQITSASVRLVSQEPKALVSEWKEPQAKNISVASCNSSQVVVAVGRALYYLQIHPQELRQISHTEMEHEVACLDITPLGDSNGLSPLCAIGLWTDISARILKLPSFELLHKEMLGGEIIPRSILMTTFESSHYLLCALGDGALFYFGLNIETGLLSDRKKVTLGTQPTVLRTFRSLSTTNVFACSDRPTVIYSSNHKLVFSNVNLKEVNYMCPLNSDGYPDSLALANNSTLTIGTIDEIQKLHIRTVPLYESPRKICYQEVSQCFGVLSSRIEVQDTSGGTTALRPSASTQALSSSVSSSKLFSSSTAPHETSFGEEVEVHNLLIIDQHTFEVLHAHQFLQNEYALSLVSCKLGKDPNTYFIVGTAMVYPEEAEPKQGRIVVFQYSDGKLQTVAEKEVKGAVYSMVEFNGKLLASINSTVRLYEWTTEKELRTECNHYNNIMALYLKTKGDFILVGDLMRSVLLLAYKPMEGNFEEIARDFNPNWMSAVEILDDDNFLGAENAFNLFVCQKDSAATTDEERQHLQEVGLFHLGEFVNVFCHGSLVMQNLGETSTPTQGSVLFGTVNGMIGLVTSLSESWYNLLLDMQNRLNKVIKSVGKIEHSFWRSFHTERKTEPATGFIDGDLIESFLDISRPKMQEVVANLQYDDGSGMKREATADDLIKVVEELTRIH
Procedure: (§1) Objective: The experiment was conducted to evaluate the degradation effects of the compound of formula (I) on IKZF1 and IKZF3 proteins in MM.1S cells by detecting their impact on the expression levels of IKZF1 and IKZF3 proteins in MM.1S cells.
(§2) • Cell line: MM.1S cell (obtained from ATCC; Cat. No. CRL-2974) • Negative control: 0.1% DMSO Table 10. Reagents and consumables
(§3) • 1) MM.1S cells in the logarithmic growth phase were seeded into a 96-well plate at 1.2×10^5 cells per well and cultured overnight. • 2) On the second day, drug treatment was initiated with a starting concentration of 300 nM, followed by a 3-fold dilution in triplicate wells, with 10 concentration gradients (containing DMSO), and incubated for 24 hours in a culture incubator. • 3) The mixture was centrifuged, and the cell supernatant was carefully removed. […]
(§4) GraphPad Prism 6 software was utilized to fit the curve with the inhibition rate data, and the DC50 value was calculated.

IKZF1 = target: T3, IKZF1 (Homo sapiens, UniProt Q13422+Q96SW2); test: In cell western analysis of IKZF1 protein expression level in MM.1S cells; type: cell-based; details: MM1.S, read-out: Maximum Degradation Rate Dmax
T3 construct: expression levels of IKZF1 and IKZF3 proteins in MM.1S cells; host or cells: MM.1S cells
T3 sequence (Q13422 whole entry): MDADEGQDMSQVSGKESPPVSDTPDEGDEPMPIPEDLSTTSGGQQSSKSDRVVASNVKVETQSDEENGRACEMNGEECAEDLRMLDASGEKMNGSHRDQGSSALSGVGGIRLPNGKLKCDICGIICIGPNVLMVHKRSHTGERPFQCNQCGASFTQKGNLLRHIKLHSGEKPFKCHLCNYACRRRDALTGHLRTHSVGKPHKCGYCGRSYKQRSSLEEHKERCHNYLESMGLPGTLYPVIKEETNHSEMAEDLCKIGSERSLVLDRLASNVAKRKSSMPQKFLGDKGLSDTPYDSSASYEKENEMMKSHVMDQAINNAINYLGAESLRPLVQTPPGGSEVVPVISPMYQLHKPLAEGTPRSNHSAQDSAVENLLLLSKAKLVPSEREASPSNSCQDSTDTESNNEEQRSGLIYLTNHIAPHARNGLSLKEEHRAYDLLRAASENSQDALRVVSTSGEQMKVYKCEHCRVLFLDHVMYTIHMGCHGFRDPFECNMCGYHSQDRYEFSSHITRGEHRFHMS
T3 sequence (Q96SW2 whole entry): as the sequence (Q96SW2 whole entry) above
T3 sequence (Q16531 whole entry partner): as the sequence (Q16531 whole entry partner) above
Procedure: as §1, §2, §3, §4

[3] = Intragastric Administration (5 mg/kg)
[4] = Intragastric Administration (10 mg/kg) (fed)

O=C1CCC(c2noc3ccc4c(NC(=O)CN5CCN(C[C@H]6CC[C@H](n7cc(NC(=O)c8coc(-c9ccnc(NCC%10CC%10)c9)n8)c(C(F)F)n7)CC6)CC5)cccc4c23)C(=O)N1 (stereo partly drawn) [Hydrochloride of Compound of Formula (I)]
Area Under the Drug-Time Curve (0-inf) [1, 3]: 3.20 µM·h | Peak Concentration [1, 3]: 0.41 µM | Area Under the Drug-Time Curve (0-inf) ([1]; Intravenous Injection (0.5 mg/kg)): 0.44 µM·h | Dmax (IRAK4): 108% | Area Under the Drug-Time Curve (0-inf) [2, 4]: 4.47 µM·h | Peak Concentration [2, 4]: 0.54 µM | Area Under the Drug-Time Curve (0-inf) ([2]; Intravenous Injection (2 mg/kg) (fasted)): 5.40 µM·h | Dmax (IKZF3): 73.5% | Dmax (IKZF1): 72.3%

Source: EP4692080A1, “PREPARATION METHOD FOR SALT FORM AND CRYSTAL FORM OF 2,6-PIPERIDINEDIONE COMPOUND AND USE THEREOF” (priority 2023, dated 2024)
